Assay results: patent publication US7951789B2 (priority 2006, dated 2011)
Values joined by “and” are separate entries in the source; they are usually repeats but may differ in a detail not shown here. Identical values can stand only once. Like-named read-outs stand apart in the source and are kept apart here.

What was measured:
[1] = test system: wild-type HBV (secreted virions); assay: Anti-HBV activity in HBV virions via endogenous polymerase assay (EPA); assay type: cell-based; conditions: Hepatitis B virus, read-out: Virion EC50 (μM)
Experimental: (§1) Compounds were tested in an anti-HBV assay. Determination of anti-HBV activity in HBV virions and nucleocapsids via endoenous polymerase assays (EPA)
(§2) • 1. 12-well collagen-I coated plates were seeded with producer cells expressing wild-type HBV at a density of 0.5-1×10^6 cells per well in 2 ml growth/selection media. • 2. Drug stock solutions were made up freshly in 100% DMSO as 200× stocks. Five additional 4-fold dilutions were prepared from these 200× stock in 100% DMSO. For each experiment, 4 aliquots of each drug dilution series were stored at −20° C. until used. • 3. Once cells reached confluency (1 day after cells were seeded), drug treatment was initiated by adding 10 μl of drug dilution into 2 ml of fresh growth/selection media. […] The no-drug control wells received only 10 μl of DMSO in fresh media. • 4. Cells were treated every-other-day with 2 ml of fresh drug/medium for a total of 8 days. Cell lysates were then collected on day 10 and subjected to EPA analysis as described below. Preparation of Nucleocapsid-Containing Lysates for Epa Analysis • 1. Cells were grown for 3 to 4 days in 12-well collagen-I coated plates until confluent. • 2. Media was carefully aspirated and the cell monolayers were rinsed once with 1 ml of PBS. • 3. One ml of lysis buffer (50 mM Tris-HCl pH 7.5/150 mM NaCl/5 mM MgCl2/0.2% NP-40) was added to each well. Plates were stored on ice for 30 min to 4 h. • 4. Lysed cells were transferred to 1.5 ml-microfuge tubes. • 5. Lysates were clarified by spinning at 14,000 rpm for 5 min at room temperature. • 6. Clarified lysates were transferred to fresh tubes and immediately frozen on dry-ice, then stored at −80° C. until endogenous polymerase assays were performed as described below. Preparation of Secreted Virions from Supernatant for Epa Analysis • 1. Cells were grown for 3 to 4 days in 12-well collagen-I coated plates until confluent. • 2. Media was carefully aspirated and transferred to 1.5 ml-microfuge tubes. • 3. Supernatants were clarified by spinning at 14,000 rpm for 5 min at room temperature. • 4. Clarified supernatants were transferred to fresh tubes and immediately frozen on dry-ice, then stored at −80° C. until endogenous polymerase assays were performed essentially as described below. Endogenous Polymerase Assay (EPA) of Cell Lysates and Supernatants • 1. EPAs were performed essentially as described by Seifer et al (1998). Intracellular HBV nucleocapsids were immunoprecipitated from the cytoplasmic lysates overnight at 4° C. with a polyclonal rabbit anti-HBcAg antibody and immobilized on protein A sepharose CL-4B beads. Secreted virions were immunoprecipitated from clarified cell supernatants overnight at 4° C. with a monoclonal mouse anti-LS antibody (MA18/7) in the absence of detergent. • 2. Following 3 washes of the immobilized capsids or virions with 1 ml of EPA wash buffer (75 mM NH4Cl, 50 mM Tris-HCl pH 7.4, 1 mM EDTA), endogenous polymerase reactions were initiated by adding 50 μl of detergent-containing EPA cocktail (50 mM Tris-HCl pH7.4, 75 mM NH4Cl, 1 mM EDTA, 20 mM MgCl2, 0.1 mM β-ME, 0.5% NP-40, 100 μM cold dGTP, TTP, dCTP, and 50 nM ^33P-dATP) and incubated overnight at 37° C. The detergent is required to strip the outer envelope from immunoprecipitated virions as well as to enhance permeability of the nucleocapsids. • 3. Following digestion with 1 mg/ml of proteinase K for 1 h at 37° C., endogenously ^33P-labeled HBV DNA was liberated via phenol/chloroform extraction. • 4. The nucleic acids were precipitated with 1 volume of 5M NH4-acetate and 2.5 volumes of 100% EtOH, and then separated on a 1% native agarose gel in Tris-borate-EDTA buffer. • 5. Gels were blotted onto positively charged nylon membrane overnight at room temperature via capillary transfer in 0.4 N NaOH. • 6. Dried membranes were exposed to a Phosphorlmager screen (GE Healthcare) overnight at room temperature, then scanned (Storm 860, GE Healthcare) and quantitated with ImageQuant software (GE Healthcare). • 7. […]

[2] = test system: wild-type HBV (intracellular nucleocapsids); assay: Anti-HBV activity in HBV nucleocapsids (RI) via endogenous polymerase assay (EPA); assay type: cell-based; conditions: Hepatitis B virus
Experimental: as §1, §2

[3] = In vivo studies in rat: distribution of A550 and LddATP in the liver; conditions: male rats
Experimental: Distribution of NM-204 (the compound of Example 1 (Hydroxy-tBuSATE N-benzylphosphoramidate derivative of L-ddA) (A550) in the rat liver was evaluated following a single intravenous (I.V.) or oral administration of A550 (NM-204) at a dose of 20 (oral) or 10 (I.V.) mg/Kg body weight. The dose solutions were prepared on the same day prior to dose administration.
At the specified time point (1 and 3 hours for IV animals or 1, 3 and 8 hours for oral animals), each animal was euthanized by CO2 gas followed by exsanguination via the abdominal vein. Livers were collected immediately after sacrifice, flash frozen in liquid nitrogen, placed on dry ice, and later stored at −70° C., before being analyzed.
Control rat liver samples were taken from whole frozen livers (Bioreclamation, Inc. Hicksville, N.Y.) with the aid of a tissue coring utensil (Harris Unicore, 8.0 mm, VWR,). Each ˜0.1 g sample was placed in individual 2 mL poly vials with 0.940 mL of 80% MeOH/20% DIH2O and homogenates were prepared using a mechanical tissue disruptor (Tissue Master, Omni-International, Inc, Marietta Ga.). The vials received a 10 μl aliquot of a working stock solution and a 50 μl aliquot of the ISTD before vortexing for ˜30 sec. The mixtures were stored overnight at −20° C. and the next day were removed for 10 min of centrifugation in a benchtop centrifuge. Each supernatant was transferred to individual centrifugation filtration units (0.45 μm) and the resulting filtrates were transferred to HPLC vials for the LC/MS/MS analysis. The final concentrations of ddATP in the calibration standards was 1000, 500, 250, 125, 50, and 0 pmol/ml. Each calibration standard was directly injected in a 50 μL volume onto the ion-exchange column for analysis. Standard curve analysis of calibration standards from control liver extracts was conducted.
Analysis of ddATP was done by an ion-exchange chromatography method with on-line positive ionization ESI-MS/MS detection in multiple reaction monitoring (MRM) detection mode. […] This is equivalent to a range of […] per gram liver by the sample preparation employed. The HPLC MS MS conditions described in Example 5 were utilized.

[4] = test system: HCV Conl subgenomic replicon (GS4.1 cells); assay: HCV replicon assay (NS4A ELISA, HCV ELISA 2); assay type: cell-based; conditions: Hepatitis C virus
Experimental: (§3) Huh-7 cells containing HCV Conl subgenomic replicon (GS4.1 cells), (C. Seeger; Fox Chase University, Philadelphia, Pa., USA), are grown in Dulbecco's Modified Eagle Medium (DMEM) supplemented with 10% fetal bovine serum (FBS), 2 mM L-glutamine, 110 mg/L sodium pyruvate, 1×non-essential amino acids, 100 U/mL penicillin-streptomycin and 0.5 mg/mL G418 (Invitrogen). For dose-response testing, the cells are seeded in 96-well plates at 7.5×10^3 cells/well in a volume of 50 μL and incubated at 37° C./5% CO2. Three hours after plating, 50 μL of ten 2-fold serial dilutions of compounds (highest concentration, 75 μM) are added and cell cultures were incubated at 37° C./5% CO2 in the presence of 0.5% DMSO. Alternatively, compounds are tested at a single concentration of 15 μM. In all cases, Huh-7 cells lacking the HCV replicon served as negative control. The cells are incubated in the presence of compounds for 72 hours after which they were monitored for expression of the NS4A protein by enzyme-linked immunosorbent assay (ELISA). For this, the plates were then fixed for 1 min with 1:1 acetone:methanol, washed twice with phosphate-buffered saline (PBS), 0.1% Tween 20, blocked for 1 hour at room temperature with TNE buffer containing 10% FBS and then incubated for 2 h at 37° C. with the anti-NS4A mouse monoclonal antibody A-236 (ViroGen) diluted in the same buffer. After washing three times with PBS, 0.1% Tween 20, the cells are incubated 1 hour at 37° C. with anti-mouse immunoglobulin G-peroxidase conjugate in TNE, 10% FBS. After washing as described above, the reaction is developed with O-phenylenediamine (Zymed). The reaction is stopped after 30 minutes with […] and the absorbance is read at 492 nm using a Sunrise Tecan spectrophotometer. EC50 values are determined from the % inhibition versus concentration data using a sigmoidal non-linear regression analysis based on four parameters with Tecan Magellan software. […] For cytotoxicity evaluation, GS4.1 cells are treated with compounds as described above and cellular viability was monitored using a Cell Titer 96 AQueous One Solution Cell Proliferation Assay (Promega). CC50 values are determined from the % cytotoxicity versus concentration data with Tecan Magellan software as described above.

[5] = Cytotoxicity evaluation in GS4.1 cells (Cell Titer 96 AQueous One Solution); assay type: cell-based; conditions: human; for CC50: 72 hours
Experimental: as §3

[6] = wild-type HBV producer cell line, intracellular nucleocapsids, EPA, read-out: RI EC50
[7] = IV dose 10 mg/kg, 1 hr, individual animals, 10 mg/kg
[8] = IV dose 10 mg/kg, 3 hrs, individual animals, 10 mg/kg
[9] = Oral dose 20 mg/kg, 1 hr, individual animals, 20 mg/kg
[10] = Oral dose 20 mg/kg, 3 hrs, individual animals, 20 mg/kg
[11] = Oral dose 20 mg/kg, 8 hrs, individual animals, 20 mg/kg
[12] = GS4.1 cells, 72 hours, NS4A ELISA, read-out: HCV ELISA 2 EC50

`CC(C)NP(=O)(OCCSC(=O)C(C)(CO)CO)OC[C@@H]1CC[C@H](n2cnc3c(N)ncnc32)O1` (stereo partly drawn) [A362 (NM 77)] showed an EC50 [1] of 1 to 10 µM and an EC50 [2, 6] of 1 to 10 µM.
For “Hydroxy-tBuSATE N-benzylphosphoramidate derivative of L-ddA [A550 (Ex 1)]”, the “Concentration Compound (A550) (Ex 1) in liver” value (“Concentration Compound (A550)” below) ([3]; IV dose 10 mg/kg, 1 hr, Mean) was 80.0 pmol/g liver, the “Concentration Compound (A550)” value [3, 7] was 65.8 pmol/g liver and 89.1 pmol/g liver and 85.1 pmol/g liver and the “Concentration ddA-TP in liver” value [3, 7] was 2025 pmol/g liver and 1930 pmol/g liver and 1355 pmol/g liver. The “Concentration ddA-TP in liver” value ([3]; IV dose 10 mg/kg, 1 hr, individual animals, hepatocellularity 114 × 10^6 cells per gram liver, 10 mg/kg) was 17.8 pmol/10^6 cells and 16.9 pmol/10^6 cells and 11.9 pmol/10^6 cells, the “Concentration Compound (A550)” value ([3]; IV dose 10 mg/kg, 3 hrs, Mean) was 27.9 pmol/g liver and the “Concentration Compound (A550)” value [3, 8] was 28.3 pmol/g liver and 26.0 pmol/g liver and 29.3 pmol/g liver. For the same compound, the “Concentration ddA-TP in liver” value [3, 8] was 1345 pmol/g liver and 11.8 pmol/10^6 cells and 1940 pmol/g liver and 17.0 pmol/10^6 cells and 2990 pmol/g liver and 26.2 pmol/10^6 cells, the “Concentration Compound (A550)” value ([3]; Oral dose 20 mg/kg, 1 hr, Mean) was 251 pmol/g liver and the “Concentration Compound (A550)” value [3, 9] was 411 pmol/g liver and 272 pmol/g liver and 70.2 pmol/g liver. For the same compound, the “Concentration ddA-TP in liver” value [3, 9] was 210 pmol/g liver and 1.8 pmol/10^6 cells and 575 pmol/g liver and 5.0 pmol/10^6 cells and 400 pmol/g liver and 3.5 pmol/10^6 cells, the “Concentration Compound (A550)” value ([3]; Oral dose 20 mg/kg, 3 hrs, Mean) was 204 pmol/g liver and the “Concentration Compound (A550)” value [3, 10] was 360 pmol/g liver and 92.1 pmol/g liver and 161 pmol/g liver. For the same compound, the “Concentration ddA-TP in liver” value [3, 10] was 200 pmol/g liver and 1.8 pmol/10^6 cells and 330 pmol/g liver and 2.9 pmol/10^6 cells and 405 pmol/g liver and 3.6 pmol/10^6 cells, the “Concentration Compound (A550)” value ([3]; Oral dose 20 mg/kg, 8 hrs, Mean) was 20.1 pmol/g liver and the “Concentration Compound (A550)” value [3, 11] was 16.4 pmol/g liver and 28 pmol/g liver and 16.2 pmol/g liver. The “Concentration ddA-TP in liver” value [3, 11] was 280 pmol/g liver and 2.5 pmol/10^6 cells and 805 pmol/g liver and 5.2 pmol/10^6 cells and 275 pmol/g liver and 2.4 pmol/10^6 cells.
Compound `CC(C)N(C(C)C)P(=O)(OCCSC(=O)C(C)(C)CO)OC[C@@H]1CC[C@H](n2cnc3c(N)ncnc32)O1` (stereo partly drawn) [A616 (NM 128)] has an EC50 ([2]; read-out: RI EC50 (μM)) of 1 to 10 µM.
`CC(C)NP(=O)(OCCSC(=O)C(C)(C)CO)OC[C@@H]1CC[C@H](n2cnc3c(N)ncnc32)O1` (stereo partly drawn) [A348 (NM 48)] showed an EC50 [1] of under 1 µM.
`CC(C)NP(=O)(OCCSC(=O)C(C)(C)CO)OC[C@H]1CC[C@@H](n2cnc3c(N)ncnc32)O1` (stereo partly drawn) [Example C791] gave an EC50 [1] of 1 to 10 µM.
For `CC(C)NP(=O)(OCCSC(=O)C(C)(CO)CO)OC[C@H]1CC[C@@H](n2cnc3c(N)ncnc32)O1` (stereo partly drawn) [A361 (NM 55)], the EC50 [1] was over 10 µM and the EC50 [2, 6] was 1 to 10 µM.
For `CC(C)(CO)C(=O)SCCOP(=O)(NCc1ccccc1)OC[C@H]1O[C@@H](n2ccc(=O)[nH]c2=O)[C@](C)(O)[C@@H]1O` (stereo partly drawn) [Example B229, Hydroxy-tBuSATE N-benzylphosphoramidate Derivative of 2′-C-methyluridine], the EC50 [4, 12] was 1 to 10 µM and the CC50 [5] was over 75 µM.
Compound `CC(C)(CO)C(=O)SCCOP(=O)(OC[C@H]1O[C@@H](n2ccc(N)nc2=O)[C@](C)(O)[C@@H]1O)N1CCCC1` (mixture of isomers) [Example B395, Hydroxy-tBuSATE N-pyrrolidinephosphosphoramidate Derivative of 2′-C-methylcytidine] has an EC50 ([4]; 72 h, read-out: HCV ELISA 2 EC50 (μM)) of 1 to 10 µM and a CC50 at 72 h [5] of over 75 µM.
Work on `C[C@@]1(O)[C@H](O)[C@@H](CO)O[C@H]1n1ccc(N)nc1=O` [A634 (NM107), 2′methyl cytidine, reference compound] yielded an EC50 [4, 12] of 1 to 10 µM and a CC50 [5] of over 75 µM.
`Cc1cn([C@@H]2CC(O)[C@H](CO)O2)c(=O)[nH]c1=O` (stereo partly drawn) [L-dT, Telbivudine, reference compound] showed an EC50 [2, 6] of under 1 µM.
